Assay results published in PMC5786306, “An AKAP-Lbc-RhoA interaction inhibitor promotes the translocation of aquaporin-2 to the plasma membrane of renal collecting duct principal cells” (PLoS ONE, 2018).
Read-outs that look alike come from different tables or passages of the source.

What was measured:
[1] = molecular target: T1, interaction of AKAP-Lbc/DHPH and RhoA (Homo sapiens, UniProt P61586); assay: Homogeneous time-resolved fluorescence (HTRF) assay; type: binding; conditions: for inhibitory effect on the AKAP-Lbc/DHPH-RhoA interaction: result in words
T1 construct: His6-AKAP-Lbc/DHPH (aa 1972–2342 of human AKAP-Lbc; NP_006729.4); made in house
Excerpt: Fig 2 The small molecule Scaff10-8 inhibits the interaction of the DH domain of AKAP-Lbc and RhoA. (A). Principle of homogenous time-resolved fluorescence (HTRF) assay. Recombinant His-AKAP-Lbc/DHPH and GST-RhoA were generated. The tags are recognized by specific antibodies coupled to fluorescent dyes. When the two proteins interact, donor and acceptor dyes of the antibodies are in close proximity, energy transfer occurs upon excitation at 320 nm and a FRET signal is detected (665 nm). If a compound disrupts the interaction of the DHPH domain and RhoA, the proximity of the fluorescent moieties remains insufficient for a FRET signal to occur. […] As expected, excess untagged Rho decreases the binding between GST-RhoA and His-AKAP-Lbc/DHPH in a dose-dependent manner (lower left panel). […] (C) The influence of Scaff10-8 on the interaction of RhoA with the recombinant DH domain of AKAP-Lbc in the absence of the PH domain was determined by Alpha screen. […] The IC50 value is indicated.
The assay was essentially carried out as described. Scaff10 derivatives were added to His6-AKAP-Lbc/DHPH protein (250 nM final concentration) in HTRF buffer (PBS; 4 mM MgCl2; 0.05% Tween 20) in 384 well plates (Proxiplate-384 Plus, white, #6008289; Perkin Elmer LAS, Rodgau, Germany). Concentrations of Scaff10 derivatives ranged between 1.56–200 μM (2% DMSO final concentration); HTRF buffer with 2% DMSO served as a control. GST-RhoA (30 nM final concentration) in HTRF buffer and anti-GST antibody coupled to terbium (donor) and anti-His6-tag antibody coupled to XL665 (acceptor) were added to all wells (final antibody concentration: 2 μg/ml). After 1 h incubation at room temperature in the dark, FRET signals were recorded at 620 and 665 nm using a Genios Pro plate reader (Tecan Austria GmbH, Grödig, AT) and the ratios of […] to 620 nm were calculated. Wells containing no compound were set to 100% interaction of AKAP-Lbc/DHPH with RhoA, wells containing GST-RhoA only (without His6-AKAP-Lbc/DHPH) were set to 0% interaction. To exclude any interference of the tags and/or antibodies with Scaff10 derivatives, a His6-GST fusion protein replaced the two tagged proteins in a control assay. Wells containing His6-GST fusion protein were set to 100% interaction of His6-GST, wells containing no fusion protein were set to 0% interaction.

Nephelometric solubility = type: physicochemical; conditions: maximal solubility in DMEM + 10 % FCS
Experimental: Solubility of Scaff10 derivatives was assessed nephelometrically. Scaff10 derivatives are moderately to poorly soluble in aqueous solutions due to their large number of aromatic rings having lipophilic character. Details about NMR, LC/MS and HPLC characterization steps are given in the Supplemental Information.
Suppl. Tab. 3: Overview of all 55 Scaff10 derivatives.Structures labeld with 1 were commercially obtained. MW = molecular weight. logP = calculated partition coefficient (using […]
Solubility was assessed nephelometrically in DMEM + 10 % FCS + Scaff10 derivative with either 0.3 or 2 % DMSO
final concentration; values in µM indicate maximal solubility of the compound under the respective condition. Yield in % indicates total yield of the last step of chemical synthesis
for each of Scaff10 derivatives. n.d. = not determined. n.i. = not indicated.
Scaff10 MW Number of exp. 2 % DMSO 0.3 % DMSO Scaff10 Yield
Structure log P Disruption of the PPI IC50 [µM]
derivative [g/mol] in dupl. [µM] [µM] class [%]

[2] = Suppl. Tab. 3, ± SEM, '-' = no IC50, inactive, n.d. = not determined, read-out: HTRF assay IC50
[3] = IC50 for inhibition of the AKAP-Lbc/DHPH-RhoA interaction, HTRF, text and figures, ± SEM, n = 3–15 in duplicate
[4] = IC50 ± SEM, Table 1, HTRF, '-' = no IC50, inactive (n.d. is used separately in S3 Table)
[5] = DMEM + 10 % FCS, plasma or biological fluid, kinetic from dmso stock, 0.3 % DMSO final, read-out: Solubility 0.3 % DMSO
[6] = DMEM + 10 % FCS, plasma or biological fluid, kinetic from dmso stock, 2 % DMSO final, read-out: Solubility 2 % DMSO
[7] = Table 1, HTRF, '-' = no IC50, inactive (n.d. is used separately in S3 Table), read-out: IC50 ± SEM
[8] = 0.3 % DMSO final, read-out: Solubility 0.3 % DMSO
[9] = 2 % DMSO final, read-out: Solubility 2 % DMSO

T1 sequence (P61586 whole entry, the tested form may be a part): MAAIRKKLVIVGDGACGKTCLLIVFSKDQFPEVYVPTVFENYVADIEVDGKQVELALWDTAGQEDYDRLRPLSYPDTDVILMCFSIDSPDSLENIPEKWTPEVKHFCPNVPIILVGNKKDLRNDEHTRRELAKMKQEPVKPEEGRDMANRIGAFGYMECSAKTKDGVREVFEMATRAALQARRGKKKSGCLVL

IC50 [1, 2]	solubility (Nephelometric solubility; [5])	solubility (Nephelometric solubility; [6])	IC50 [1, 7]	solubility (Nephelometric solubility; [9])	Structure (SMILES)	further results
> 200 µM					COc1ccc(C(=O)COc2ccc3c(C)c(CCC(=O)NCCNC(=O)CCCCC4SCC5NC(=O)NC54)c(=O)oc3c2)cc1 (stereo not drawn) [Scaff10-9, N-[2-[3-[7-[2-(4-Methoxyphenyl)-2-oxo-ethoxy]-4-methyl-2-oxo-chromen-3-yl]propanoylamino]ethyl]-5-(2-oxo-1,3,3a,4,6,6a-hexahydrothieno[3,4-d]imidazol-4-yl)pentanamide]	
	75 µM	30 µM			COc1cccc(-c2ccc(C(=O)COc3ccc4c(C)c(CCC(=O)O)c(=O)oc4c3)cc2)c1 [Scaff10-63]	IC50 [1, 3]: 24 ± 8 µM; IC50 [1, 4]: 24.4 ± 8.4 µM
		50 µM			Cc1c(CCC(=O)O)c(=O)oc2cc3occ(-c4ccc(-c5ccccc5)cc4)c3cc12 [Scaff10-41]	IC50 [1, 4]: 29.1 ± 2.6 µM
	> 150 µM	70 µM			COc1cccc(-c2ccc(-c3coc4cc5oc(=O)c(CCC(=O)O)c(C)c5cc34)cc2)c1 [Scaff10-64]	IC50 [1, 4]: 28.9 ± 9.3 µM
	> 150 µM				COc1ccc(-c2coc3cc4oc(=O)c(CCC(=O)NCC(=O)O)c(C)c4cc23)cc1 [Scaff10-61]	IC50 [1, 4]: 64 ± 6 µM
26.8 ± 3.5 µM	> 150 µM	70 µM			COc1ccc(-c2coc3c(C)c4oc(=O)c(CCC(=O)O)c(C)c4cc23)cc1 [Scaff10-50]	
> 200 µM	> 150 µM	65 µM			Cc1nc(-c2ccc(F)cc2)ccc1-c1coc2cc3oc(=O)c(C)c(C)c3cc12 [Scaff10-5, 3-[6-(4-Fluorophenyl)-2-methyl-3-pyridyl]-5,6-dimethyl-furo[3,2-g]chromen-7-one]	
			> 200 µM	15 µM	COc1ccc2cc(-c3coc4cc5oc(=O)c(C)c(C)c5cc34)ccc2c1 [Scaff10-47]	inhibitory effect on the AKAP-Lbc/DHPH-RhoA interaction ([1]; HTRF): no inhibitory effect; solubility (Nephelometric solubility; [8]): > 150 µM
> 200 µM		30 µM			COc1ccc(C(=O)COc2ccc3ccc(=O)oc3c2)cc1 [AE167, 7-[2-(4-Methoxyphenyl)-2-oxo-ethoxy]chromen-2-one]	
	> 150 µM	> 100 µM	56.4 ± 4.5 µM		COc1ccc(-c2coc3cc4oc(=O)c(CC(=O)O)c(C)c4cc23)cc1 [Scaff10-49]	IC50 ([1]; HTRF, text and figures, ± SEM, n = 3–15 in duplicate, read-out: IC50 for inhibition of the AKAP-Lbc/DHPH-RhoA interaction): 56 ± 5 µM
> 200 µM	40 µM	45 µM			COc1ccc(-c2coc3cc4oc(=O)ccc4cc23)cc1 [Scaff10-1, 3-(4-Methoxyphenyl)furo[3,2-g]chromen-7-one]	
> 200 µM	> 150 µM	40 µM			Cc1nc(-c2ccc(F)cc2)ccc1C(=O)COc1ccc2c(C)c(C)c(=O)oc2c1 [Scaff10-4, 7-[2-[6-(4-Fluorophenyl)-2-methyl-3-pyridyl]-2-oxo-ethoxy]-3,4-dimethyl-chromen-2-one]	
	> 150 µM	100 µM	> 200 µM		COc1ccc(C(=O)COc2ccc3c(C)c(CCC(=O)O)c(=O)oc3c2)cc1 [Scaff10-6, 3-[7-[2-(4-Methoxyphenyl)-2-oxo-ethoxy]-4-methyl-2-oxo-chromen-3-yl]propanoic acid]	
> 200 µM	> 150 µM	40 µM			Cc1c(C)c2cc3c(-c4cccnc4)coc3cc2oc1=O [Scaff10-3, 5,6-Dimethyl-3-(3-pyridyl)furo[3,2-g]chromen-7-one]	
			> 200 µM	50 µM	COc1ccc(-c2coc3cc4oc(=O)c(CCC(=O)N(C)C)c(C)c4cc23)cc1 [Scaff10-26]	inhibitory effect on the AKAP-Lbc/DHPH-RhoA interaction ([1]; HTRF): complete loss of the inhibitory effect; solubility (Nephelometric solubility; [8]): > 150 µM
			> 200 µM	20 µM	COc1ccc(-c2coc3cc4oc(=O)c(CCC(=O)NO)c(C)c4cc23)cc1 [Scaff10-51]	inhibitory effect on the AKAP-Lbc/DHPH-RhoA interaction ([1]; HTRF): almost complete loss of activity; solubility (Nephelometric solubility; [8]): 40 µM
	40 µM	15 µM			COc1ccc2cc(-c3coc4cc5oc(=O)c(CCC(=O)O)c(C)c5cc34)ccc2c1 [Scaff10-44]	IC50 [1, 4]: 20.7 ± 2.5 µM
	> 150 µM	> 100 µM	66.7 ± 7.5 µM		Cc1c(CCC(=O)O)c(=O)oc2cc3occ(-c4ccccc4)c3cc12 [Scaff10-58]	
			> 200 µM	> 100 µM	Cc1c(CCC(=O)O)c(=O)oc2cc(OCC(=O)c3ccc(N(C)C)cc3)ccc12 [Scaff10-35]	inhibitory effect on the AKAP-Lbc/DHPH-RhoA interaction ([1]; HTRF): complete loss of activity; solubility (Nephelometric solubility; [8]): > 150 µM
> 200 µM				75 µM	COc1ccc(C(=O)COc2ccc3c(C)c(C)c(=O)oc3c2)cc1 [AE168, [2-(4-Methoxyphenyl)-2-oxo-ethoxy]-3,4-dimethyl-chromen-2-one]	
> 200 µM				30 µM	CCOC(=O)CCc1c(C)c2ccc(OCC(=O)c3ccc(-c4ccc(F)cc4)nc3C)cc2oc1=O [Scaff10-10, Ethyl 3-[7-[2-[6-(4-fluorophenyl)-2-methyl-3-pyridyl]-2-oxo-ethoxy]-4-methyl-2-oxo-chromen-3-yl]propanoate]	solubility (Nephelometric solubility; [8]): > 150 µM
		> 100 µM			Cc1c(CCC(=O)O)c(=O)oc2cc3occ(-c4ccc(C(F)(F)F)cc4)c3cc12 [Scaff10-30]	inhibitory effect on the AKAP-Lbc/DHPH-RhoA interaction ([1]; HTRF): reduced; IC50 [1, 4]: 47.8 ± 7.8 µM
	10 µM	15 µM			Cc1c(CCC(=O)O)c(=O)oc2cc(OCC(=O)c3ccc(-c4ccccc4)cc3)ccc12 [Scaff10-40]	IC50 [1, 3]: 21 ± 3 µM; IC50 [1, 4]: 20.8 ± 2.6 µM
			> 200 µM	> 100 µM	Cc1c(CCC(=O)O)c(=O)oc2cc3occ(-c4ccncc4)c3cc12 [Scaff10-32]	inhibitory effect on the AKAP-Lbc/DHPH-RhoA interaction ([1]; HTRF): complete loss of activity; solubility (Nephelometric solubility; [8]): > 150 µM
> 200 µM	75 µM	90 µM			Cc1c(C)c2ccc(OCC(=O)c3cccnc3)cc2oc1=O [Scaff10-2, 3,4-Dimethyl-7-[2-oxo-2-(3-pyridyl)ethoxy]chromen-2-one]	

Structure (SMILES)	IC50 [1, 2]	solubility (Nephelometric solubility; [5])	solubility (Nephelometric solubility; [6])	IC50 [1, 7]	solubility (Nephelometric solubility; [9])	further results
Cc1c(C)c2cc3c(-c4ccc(-c5ccccc5)cc4)coc3cc2oc1=O [Scaff10-46]				> 200 µM	15 µM	inhibitory effect on the AKAP-Lbc/DHPH-RhoA interaction ([1]; HTRF): no inhibitory effect; solubility (Nephelometric solubility; [8]): > 150 µM
